In US4774248A, “Methods of treating depression and depressive states using 5-phenyl-1,4,5,6-tetrahydropyrimidine derivatives” (priority 1985, dated 1988):
“Also recorded” adds a separate entry of the source.

Experiments:
[1] = Acute toxicity, intraperitoneal (LD0, LD30, LD60, LD100); type: in vivo; conditions: mouse, in vivo, ip; 128 mg/kg i.p., male mice; read-out: death 24 h after administration
Protocol: (§1) The results of toxicological and neuropsychopharmacological tests which were carried out with the products according to the invention have been summarized below. In these tests, solutions of the said products in distilled water were administered intraperitoneally in a volume of 20 ml/kg to male mice and in a volume of 5 ml/kg to male rats.

[2] = system: male mice; experiment: as above; type: in vivo
Protocol: as §1

[3] = system: mice; experiment: Overall behavior and reactivities in mice; type: in vivo; conditions: i.p.
Method in brief: (§2)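 Male mice (20 ml/kg) and male rats (5 ml/kg) dosed intraperitoneally with compound in distilled water.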

[4] = system: rats; experiment: Overall behavior and reactivities in rats; type: in vivo; conditions: i.p.
Method in brief: as §2

[5] = system: hypothermia, righting behavior and stereotypies induced by apomorphine; experiment: Interaction with apomorphine in mice; type: in vivo; conditions: i.p.
Method in brief: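 Male mice, groups of 6, given test compound intraperitoneally in distilled water (20 ml/kg) 30 min before subcutaneous apomorphine at 1 or 16 mg/kg. Hypothermia, righting behaviour and stereotypies scored.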

[6] = system: stereotypies induced by apomorphine; experiment: Interaction with apomorphine in rats; type: in vivo; conditions: i.p., apomorphine 0.5 mg/kg s.c.
Protocol: as §1
CRL 41 378 is administered to groups of 12 rats 0.5 h before the subcutaneous injection of 0.5 mg/kg of apomorphine.

[7] = system: hypothermia and ptosis induced by reserpine; experiment: Interaction with reserpine; type: in vivo; conditions: mice, i.p.; reserpine 2.5 mg/kg
Method in brief: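 Reserpine 2.5 mg/kg i.p. given to male mice in groups of 12; test compound dissolved in distilled water and given i.p. (20 ml/kg) four hours later.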

[8] = system: hypothermia, trembling and peripheral cholinergic symptoms induced by oxotremorine; experiment: Interaction with oxotremorine; type: in vivo; conditions: mice, i.p.; oxotremorine 0.5 mg/kg
Method in brief: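 Male mice, groups of 6, given the compound intraperitoneally in distilled water (20 ml/kg) 0.5 h before 0.5 mg/kg oxotremorine i.p. Hypothermia, trembling and peripheral cholinergic symptoms were assessed.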

[9] = system: mice; experiment: Electric shock; type: in vivo; conditions: i.p.
Protocol: as §1
The test is performed on groups of 10 mice 30 minutes after the administration of CRL 41 378.

[10] = system: mice; experiment: Spontaneous motility (actimeter); type: in vivo; conditions: i.p.
Protocol: as §1
0.5 h after they have received CRL 41 378, the mice (6 per dose, 12 control animals) are placed in an actimeter, where their motility is recorded for 30 minutes.

[11] = system: mice; experiment: Intergroup aggressiveness; type: in vivo; conditions: mice, i.p.
Method in brief: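 Male mice housed 3 weeks per group in cage halves split by an opaque partition; groups of 3 given CRL 41 378 i.p. in distilled water.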

[12] = system: mice; experiment: Motility reduced by hypoxic aggression (acute hypobaric anoxia); type: in vivo; conditions: i.p.
Protocol: In these tests, solutions of the said products in distilled water were administered intraperitoneally in a volume of 20 ml/kg to male mice and in a volume of 5 ml/kg to male rats.

[13] = system: central nervous system (CNS); experiment: Neuropsychopharmacological profile (conclusions of the tests); type: in vivo, mice and rats; conditions: i.p.
Protocol: as §1

[14] = system: chicken embryos; conditions: D. G. UPSHALL, Teratology, 1972; cited from earlier work

Cl.Clc1ccc(C2CN=CNC2)cc1 (centres unmarked) [CRL 41 336, 5-(4-chlorophenyl)-1,4,5,6-tetrahydropyrimidine hydrochloride]
mortality at 24 h [1]: 60%
toxic signs in the animals treated ([2]; 64 mg/kg i.p.): all the animals treated exhibit sedation and a decrease in the breathing rate
toxic signs in the animals treated ([2]; 128 mg/kg i.p.): the animals exhibit sedation and a decrease in the breathing rate
LD0 (maximum non-lethal dose) ([2]; intraperitoneal): greater than 64 mg/kg
LD60 ([2]; intraperitoneal): about 128 mg/kg
LD100 (minimum dose lethal to all the animals) ([2]; intraperitoneal): 200 to 210 mg/kg
moderate hypothermia ([3]; 32 mg/kg, from 1 to 3 hours): -1.3 °C
overall behavior and reactivities ([3]; 32 mg/kg, hydrochloride): sedation for 0.25 h; also recorded: a decrease in the breathing rate from 1 to 3 hours; also recorded: moderate hypothermia; also recorded: vasodilation of the ears and tail from 0.5 h to 3 h
overall behavior and reactivities ([3]; 0.5 to 8 mg/kg): no distinct modification of the behavior and reactivities
overall behavior and reactivities ([4]; 4 mg/kg): mydriasis for 2 hours (maximum 0.5 h after administration)
overall behavior and reactivities ([4]; 16 mg/kg, hydrochloride): sedation for 3 h; also recorded: a decrease in the breathing rate for 3 h; also recorded: mydriasis for 3 h (with its maximum intensity 0.5 h after administration); also recorded: piloerection for 1 h; also recorded: vasodilation (of the paws) for 2 h
overall behavior and reactivities ([4]; 0.25 and 1 mg/kg): behavior, reactivities and variations in rectal temperature and pupil diameter which are substantially comparable to those of the animals in the control group
action on hypothermia induced by apomorphine [5]: distinct antagonism of the hypothermia induced by apomorphine and oxotremorine
action on righting behavior and stereotypies due to apomorphine [5]: decreases the stereotypies induced by apomorphine in rats and mice
action on stereotypies induced by apomorphine [6]: decreases the stereotypies induced by apomorphine in rats and mice
action on hypothermia induced by reserpine [7]: more moderate antagonism of the hypothermia induced by reserpine
action on hypothermia induced by oxotremorine [8]: distinct antagonism of the hypothermia induced by apomorphine and oxotremorine
lethal effects of electric shock [9]: aggravation of the lethal effect of electric shock
spontaneous motor activity [10]: a decrease in the spontaneous motor activity
intergroup aggressiveness (number of fights) [11]: a decrease in the intergroup aggressiveness in mice
motor recovery after acute hypobaric hypoxia [12]: a decrease in the motility after acute hypobaric hypoxia
antidepressant effects [13]: antidepressant effects
peripheral α-adrenergic stimulant effects [13]: peripheral α-adrenergic stimulant effects appearing at high doses, especially as mydriasis and piloerection in rats
sedative effects ([13]; hydrochloride): sedation in mice and rats; also recorded: hypothermia (transient) in mice

c1ccc(C2=NCCCN2)cc1 [compound No. 2]
teratogenic effect [14]: teratogenic

Clc1ccc(C2CCNC=N2)cc1 (centres unmarked) [compound No. 18]
teratogenic effect [14]: absence of teratogenic effects on chicken embryos
